Values of other authors in PMC6009888, “Design, synthesis, and pharmacological evaluation of 2-amino-5-nitrothiazole derived semicarbazones as dual inhibitors of monoamine oxidase and cholinesterase: effect of the size of aryl binding site” (Journal of Enzyme Inhibition and Medicinal Chemistry, 2017).

How the values were obtained:
MAO-A [1] = tested on: MAO-A; set-up: method as in PMID 12553895, PMID 23325700, PMID 27135466; settings: Figure 1, lead semicarbazone inhibitors; ref [47–50]; cited from earlier work
MAO-B [2] = tested on: MAO-B; set-up: method as in PMID 12553895, PMID 23325700, PMID 27135466; settings: Figure 1, lead semicarbazone inhibitors; ref [47–50]; cited from earlier work
AChE = tested on: AChE; set-up: method as in PMID 12553895, PMID 23325700, PMID 27135466; settings: Figure 1, lead semicarbazone inhibitors; ref [47–50]; cited from earlier work
MAO-A [3] = biological target: T1, MAO-A (Rattus norvegicus, UniProt P21396); settings: reference inhibitors; ref [50]; read-out: MAO-A In vitro IC50 (µM) ± SEM; cited from earlier work
T1 construct: employing crude rat brain mitochondrial suspension; from tissue; host or cells: brain mitochondria of adult Wistar rats
T1 sequence (P21396 1-526): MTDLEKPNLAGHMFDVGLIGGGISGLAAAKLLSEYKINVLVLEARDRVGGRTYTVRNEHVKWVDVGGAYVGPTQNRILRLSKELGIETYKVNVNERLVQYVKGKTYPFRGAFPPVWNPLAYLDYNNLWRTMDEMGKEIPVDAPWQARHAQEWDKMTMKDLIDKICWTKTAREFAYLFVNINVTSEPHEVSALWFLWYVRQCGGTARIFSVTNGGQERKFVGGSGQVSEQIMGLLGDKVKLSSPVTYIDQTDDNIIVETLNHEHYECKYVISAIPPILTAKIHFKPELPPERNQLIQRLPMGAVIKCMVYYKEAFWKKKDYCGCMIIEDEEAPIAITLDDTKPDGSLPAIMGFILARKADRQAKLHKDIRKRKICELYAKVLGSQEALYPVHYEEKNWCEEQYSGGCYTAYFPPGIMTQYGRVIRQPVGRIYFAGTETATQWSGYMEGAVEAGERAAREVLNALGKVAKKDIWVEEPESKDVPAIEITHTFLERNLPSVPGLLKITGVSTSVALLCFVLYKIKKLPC

MAO-B [4] = biological target: T2, MAO-B (Rattus norvegicus, UniProt P19643); set-up: method as in PMID 27135466; settings: reference inhibitors; ref [50]; read-out: MAO-B In vitro IC50 (µM) ± SEM; cited from earlier work
T2 construct: employing crude rat brain mitochondrial suspension; from tissue; host or cells: brain mitochondria of adult Wistar rats
T2 sequence (P19643 1-520): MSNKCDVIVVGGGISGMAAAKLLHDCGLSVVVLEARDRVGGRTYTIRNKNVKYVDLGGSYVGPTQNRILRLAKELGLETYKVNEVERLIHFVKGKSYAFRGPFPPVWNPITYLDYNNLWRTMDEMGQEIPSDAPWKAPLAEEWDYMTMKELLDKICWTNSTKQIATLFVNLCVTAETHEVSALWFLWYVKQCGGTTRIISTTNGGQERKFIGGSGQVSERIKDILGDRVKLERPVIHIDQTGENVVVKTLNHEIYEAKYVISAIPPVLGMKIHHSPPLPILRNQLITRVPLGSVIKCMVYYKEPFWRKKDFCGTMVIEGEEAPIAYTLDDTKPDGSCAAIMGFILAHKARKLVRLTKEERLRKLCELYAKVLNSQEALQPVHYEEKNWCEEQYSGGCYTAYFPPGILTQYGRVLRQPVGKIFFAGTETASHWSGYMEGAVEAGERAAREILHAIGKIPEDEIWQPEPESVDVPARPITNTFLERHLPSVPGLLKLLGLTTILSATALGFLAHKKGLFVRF

## O=C(N/N=C/c1c(Cl)cccc1Cl)Nc1ccc2c(c1)OCO2 [(ii)]
MAO-A [1]
  IC50: 4.52 ± 0.032 µM
MAO-B [2]
  IC50: 0.059 ± 0.002 µM
AChE
  IC50: 0.0087 ± 0.0002 µM

## CNC(=O)N(CCO)/N=C/c1ccc(OCc2ccccc2)cc1 [(iv)]
MAO-A [1]
  IC50: 90 µM
MAO-B [2]
  IC50: 2.2 µM

## COc1ccc2c(c1)[nH]c1c(C)nccc12 [HRM, Harmine]
MAO-A [3]
  IC50: 3 µM
MAO-B [4]
  IC50: 7000 µM

## O=C(NN=C(c1ccccc1)c1ccccc1)Nc1ccncc1 [(iii)]
AChE
  IC50: 0.052 ± 0.01 µM

## O=C(N/N=C(\c1ccccc1)c1ccc(Cl)cc1)Nc1nc2ccc([N+](=O)[O-])cc2s1 [(i)]
MAO-A [1]
  IC50: 0.184 ± 0.001 µM
MAO-B [2]
  IC50: 0.004 ± 0.001 µM

## O=C(N/N=C1/C(=O)Nc2ccccc21)Nc1nc2ccc([N+](=O)[O-])cc2s1 [(v)]
MAO-A [1]
  IC50: 5.98 ± 0.534 µM
MAO-B [2]
  IC50: 2.15 ± 0.095 µM
